“Also recorded” adds a separate entry of the source. Like-named read-outs stand apart in the source and are kept apart here.
Assays:
TNF-α = TNF-α content in liver and epididymal white adipose tissue after 5 weeks of treatment in WD fed rats (ELISA); format: in vivo, rat; conditions: for Decrease of TNF-α levels in epididymal white adipose tissues: metformin 50, GW501516 10, compound I.1 10 mg/kg (alone or +metformin 50 mg/kg)
Method: (§1) At the end of the clamp procedure (9.5 hours fasting), perirenal, retroperitoneal, epididymal and inguinal fat pads and liver weights were recorded. Blood was collected from cardiac puncture and plasmas were stored at −80° C. for further assays if needed (depending on the radioactive state of samples). Liver triglyceride content was assessed (enzymatic-colorimetric method) as well as liver and adipose tissue TNF-α content (ELISA method).

rat PPARα = biological target: T1, rat PPARα (Rattus norvegicus, UniProt P37230); assay: GAL4-PPAR chimera transactivation assay in CV-1 cells at 10% or 0.1% serum (Example 4); format: cell-based; conditions: read-out: GAL4-chimera (rat) EC50 (μM) hPPARα
T1 construct: expressed in transfected cells; host or cells: CV-1
T1 sequence (P37230 239-466 limits assumed): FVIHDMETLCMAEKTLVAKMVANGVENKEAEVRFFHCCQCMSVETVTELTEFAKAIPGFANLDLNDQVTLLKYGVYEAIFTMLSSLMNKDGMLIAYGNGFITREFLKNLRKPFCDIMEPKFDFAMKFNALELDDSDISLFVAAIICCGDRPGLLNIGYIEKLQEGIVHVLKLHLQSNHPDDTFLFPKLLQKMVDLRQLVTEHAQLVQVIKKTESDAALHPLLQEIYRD

[1] = Liver and adipose tissue weights after 5 weeks of treatment in WD fed rats; format: in vivo, rat; conditions: for Decrease of liver weight: non significant, pioglitazone 10, GW501516 10 mg/kg
Method: as §1

[2] = Plasma biochemistry after 17 days of treatment in WD fed rats (glycemia, insulin, HOMA-IR, adiponectin, FFA, TG); format: in vivo, rat; conditions: for Decrease of HOMA-IR / Decrease of plasma insulin: 4 h fasted; for Decrease of HOMA-IR: pioglitazone 10, metformin 50, GW501516 10, compound I.1 10 mg/kg; for Decrease of plasma insulin: pioglitazone 10, metformin 50, GW501516 10, compound I.1 10 mg/kg +metformin 50 mg/kg; for Plasma adiponectin levels: pioglitazone 10, metformin 50, GW501516 10, compound I.1 3 and 10 mg/kg
[3] = Triglycerides content in the liver after 5 weeks of treatment in WD fed rats (enzymatic-colorimetric method); format: in vivo, rat; conditions: pioglitazone 10, GW501516 10, compound I.1 at any used dose
Method: as §1

rat PPARδ = biological target: T2, rat PPARδ (Rattus norvegicus, UniProt Q62879); assay: GAL4-PPAR chimera transactivation assay in CV-1 cells at 10% or 0.1% serum (Example 4); format: cell-based; conditions: read-out: GAL4-chimera (rat) EC50 (μM) hPPARδ
T2 construct: expressed in transfected cells; host or cells: CV-1
T2 sequence (Q62879 139-440 limits assumed): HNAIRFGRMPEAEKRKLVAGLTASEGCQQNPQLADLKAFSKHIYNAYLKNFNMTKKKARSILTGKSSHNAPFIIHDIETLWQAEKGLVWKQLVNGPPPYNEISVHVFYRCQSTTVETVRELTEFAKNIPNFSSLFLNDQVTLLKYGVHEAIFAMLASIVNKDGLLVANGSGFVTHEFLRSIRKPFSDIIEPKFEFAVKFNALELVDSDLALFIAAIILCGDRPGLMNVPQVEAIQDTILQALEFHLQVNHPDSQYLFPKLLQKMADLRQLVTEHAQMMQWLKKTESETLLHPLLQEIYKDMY
Method: Assays were performed in triplicate for GAL4-chimeras. Experiments were repeated at least three times.
The EC50 were calculated as previously described.
The transactivation activities of the compound I.1 and GW501516 are measured in rat and mouse transactivation assays at 10% and 0.1% serum (Tables 11 and 12).

[4] = Body weight follow-up during treatment in rats fed a high fat/medium fructose diet (WD); format: in vivo, rat; conditions: oral once daily, pioglitazone 10, metformin 50, GW501516 10, compound I.1 10 mg/kg (alone or +metformin 50 mg/kg)
Description: The first set of rats was undergoing an OGTT after 3 weeks of treatment (half rats/group of the clamp arm) and the second set was also undergoing an OGTT after 3 weeks of treatment (half rats/group of clamp arm) and the Histology study (3 rats/group). […] Homogenous mild obese and insulin resistant rats were allocated into the different treatment groups and western diet was continued until the end of the experiment. Given that, the 2 series started with a gap of one week Dosage regimen: Rats were treated once daily via the oral route, in the morning. The duration of the treatment was between 5 and 5.5 weeks. […], 10 mg/Kg (n=12) […] The second set of rats was weighted at 8:30 on days 17 and 21, at 1:45 pm on day 24 and at 11:10 am on day 28.

[5] = Oral glucose tolerance test after 3 weeks of treatment in WD fed rats; format: in vivo, rat; conditions: 6 h fasted, oral glucose 2.5 g/kg after 3 weeks, pioglitazone 10, metformin 50, GW501516 10, compound I.1 10 mg/kg
[6] = test system: TNF-alpha-activated HUVECs; conditions: under physiological flow; cited from earlier work
[7] = Euglycemic-hyperinsulinemic 2 steps clamp with 3H-glucose after 5 weeks of treatment in WD fed rats; format: in vivo, rat; conditions: for Increase of glycolysis: metformin 50, GW501516 10, compound I.1 10 mg/kg (alone or +metformin 50 mg/kg); for Increase of GIR (glucose infusion rate) during the first step / Decrease of HGP (hepatic glucose production): clamp 0.2 U/kg/h insulin, pioglitazone 10, metformin 50, compound I.1 10 mg/kg +metformin 50 mg/kg
Method: After 4 weeks of treatment, a catheter was implanted into the femoral vein under isoflurane anaesthesia and a period of 5-6 days was respected for recovery. […] The morning of the clamp procedure, rats were treated and fasted for 6 hours prior to tracer, glucose and insulin infusions. The beginning of the clamp procedure was performed in the middle of the dark cycle.
The euglycemic hyperinsulinemic 2 steps insulin clamp was performed using 0.2 U/kg/h and 0.8 U/kg/h insulin infusion associated with 3H-glucose infusion. We then assessed:
During the clamp procedure, a bolus (30 μCi) of D-[3-3H]glucose was first injected followed by 4 μCi/min/kg infusion rate during all the experiment to ensure a detectable plasma D[3-3H]glucose enrichment. A bolus of insulin (100 mU) was first injected, and insulin was then infused at a rate of 0.2 U/kg/h for the first 2 hours and 0.8 U/kg/h from 120 minutes to 210 minutes.
Throughout the infusion, glycaemia was assessed with a blood glucose meter from the tip of the tail vein when needed. Euglycemia was maintained by periodically (every 10 minutes) adjusting a variable infusion of 30% glucose. Plasma glucose concentrations and D-[3-3H]glucose specific activity were determined during stable phase in 10 μl of blood sampled from the tip of the tail vein every 20 minutes from 60 to 120 minutes during the first step and from 150 to 210 minutes during the second step.
For glucose turnover measurements, D-[3-3H]glucose enrichments were determined from total blood after deproteinization by a Zn(OH)2 precipitate. Briefly, an aliquot of the supernatant was evaporated to dryness to determine the radioactivity corresponding to D-3-3H. In a second aliquot of the same supernatant, glucose concentration was assessed by the glucose oxidase method (Biomérieux, France).
Calculations for glucose turnover measurements were made from parameters obtained during the infusions in steady-state condition ([…]). Briefly, the D-[3-3H]glucose specific activity was calculated by dividing the D-[3-3H]glucose enrichment by the plasma glucose concentration. The whole body glucose turnover rate was calculated by dividing the rate of D[3-3H]glucose by the D-[3-3H]glucose plasma specific activity. For each rat, the mean values were calculated and averaged with values from rats of the same group. The whole body glycolysis rate was measured by assessing the amount of tritiated water accumulated in the blood during the 3H-glucose infusion and the whole body glycogen synthesis rate was calculated by the difference between the whole body glucose turnover and the whole body glycolysis rate.

Row | Compound | Decrease of TNF-α levels in epididymal white adipose tissues (TNF-α) [%] | Decrease of liver weight [1] [%] | Decrease of HOMA-IR [2] [%] | Decrease of plasma insulin [2] [%] | Plasma adiponectin levels [2] | Body weight / body weight gain during treatment [4] | Increase of glycolysis ([7]; clamp 0.8 U/kg/h insulin) [%] | Increase of GIR (glucose infusion rate) during the first step ([7]; after 5 weeks) [%] | Decrease of HGP (hepatic glucose production) [7] [%] | other results
1 | Cc1cc(SCc2sc(-c3ccc(C(F)(F)F)cc3)nc2C)ccc1OCC(=O)O [GW-501516] | 60 | 8 | ~25 | 21 | prevented the decrease | slightly decreased body weight the first week of treatment but not in a significant manner; also recorded: significant after 4 weeks of treatment | 21 | – | – | TNF-α content in the liver (TNF-α; compound I.1 10 mg/kg +metformin 50 mg/kg, GW501516 10 mg/kg, other groups): tended to decreased; Decrease of TNF-α level in the liver (TNF-α; tendency, compound I.1 10 mg/kg +metformin 50 mg/kg, GW501516 10 mg/kg): 12%; EC50 (rat PPARα; 0.1% serum): 1.96 ± 0.7 µM; EC50 (rat PPARα; 10% serum): > 10 µM; Increase of plasma TG ([2]; GW501516 10 mg/kg, compound I.1 10 mg/kg +metformin 50 mg/kg): 84%; Triglycerides content in the liver [3]: tended to decrease; also recorded: did not significantly decrease; EC50 (rat PPARδ; 0.1% serum): 0.072 ± 0.025 µM; EC50 (rat PPARδ; 10% serum): 0.427 ± 0.29 µM; Glucose tolerance (OGTT, AUC, glycemia variation) [5]: strong tendency to improved glucose tolerance; Rolling and adhesion of hPMNs on TNF-alpha-activated HUVECs [6]: inhibited markedly
2 | CN(C)C(=N)N=C(N)N [metformin] | 25 | – | ~50 | 44 | did not prevent a decrease | decreased | 20 | 112 | 40 | Decrease of perirenal white adipose tissue ([1]; tendency, metformin 50 mg/kg alone or with compound I.1 10 mg/kg): 27%; Body weight / body weight gain during treatment ([4]; listed as Metformin): significantly decreased body weight after 2 weeks of treatment; Insulin resistance / insulin sensitizing effect (overall) ([7]; WD fed rats, after 5 weeks, compound I.1 dose not specified (3 and 10 mg/kg groups), pioglitazone 10, metformin 50 mg/kg): insulin sensitizing effects; Whole body glucose oxidation ([7]; WD fed rats, clamp after 5 weeks, metformin 50 mg/kg, compound I.1 dose not specified, alone or associated): tended to increase; GIR during the second step ([7]; clamp 0.8 U/kg/h insulin, after 5 weeks, pioglitazone 10, metformin 50 mg/kg, other groups): tended to increase GIR (not significantly)
3 | CCc1ccc(CCOc2ccc(CC3SC(=O)NC3=O)cc2)nc1 (centres unmarked) [pioglitazone] | – | 12 | ~50 | 39 | – | – | – | 138 | 47 | –

From patent publication US20110092517A1, “Use of PPAR Delta Ligands for the Treatment or Prevention of Inflammation or Energy Metabolism/Production Related Diseases” (Cerenis Therapeutics S.A. & Nippon Chemiphar Co., Ltd., priority 2009, published 2011)
